# Experimental data taken from patent EP0429304A2, “Pyridone-carboxylic acid derivatives and their use as veterinary medicines” (SHIONOGI SEIYAKU KABUSHIKI KAISHA trading under the name of …, priority 1989, dated 1991).
# System: H.pp (otherwise called Actinobacillus pleuropneumoniae) strain M-1
# Assay: Experimental H.pp infection to pig, through injection
# Type: in vivo
# Conditions: injection to thigh muscle one time, Dose 5 mg/kg; dissection 6 days after inoculation
structure (smiles),measurement,value
Cl.Nc1c(F)c(N2C[C@@H]3CC[C@@H](N)[C@@H]3C2)c(F)c2c1c(=O)c(C(=O)O)cn2C1CC1 (relative stereo) [I-16],Number of pig having nodi/Number of pig tested,0/4
